The values below come from patent publication US8008506B2, “Indazole compounds” (priority 2008, dated 2011).

A short description of series [1]: Test Example 12: solubility in physiological saline. It is filed as physicochemical. The following applies: saline or isotonic, thermodynamic from solid, 37° C., one hour, 1 mg/mL nominal. As to the method: A test compound is precisely weighed to 500 μg, and a hydrochloric acid buffer solution at pH 1.2 is added thereto to a concentration of 1 mg/mL. The solution is shaken at 37° C. for one hour. After the shaking, the entire amount of the solution is transferred into a filter tube, and the solution is filtered by centrifugation. The filtrate is analyzed by HPLC, and the solubility of the test compound is determined by dividing the peak area value of the filtrate by the peak area value of the standard solution.
Test on Solubility in Physiological Saline
The solubility of a test compound is determined by performing the same test as that performed in Test Example 11, except that the hydrochloric acid buffer solution at pH 1.2 is changed to physiological saline.

Series [2] addresses T1, human β3 adrenergic receptor (Homo sapiens, UniProt P13945).
T1 construct: the full length human β3 gene is obtained from a human genomic library; expressed in transfected cells; host or cells: CHO (Chinese Hamster Ovary) cells, pcDNA3, geneticin selection
Kind of series: Test Example 1-B: human β3 adrenergic receptor agonist activity (cAMP-Screen kit, transfected CHO cells, 96-well). It is filed as cell-based. The following applies: for Emax: CHO, read-out: β3 receptor I.A.; for EC50: Table 2, Test Example 1-B. As to the method: (§1) Measurement of Human β3 Adrenergic Receptor Agonist Activity
The measurement of human β3 adrenergic receptor agonist activity is carried out using CHO (Chinese Hamster Ovary) cells transfected with pcDNA3 (manufactured by Invitrogen, Inc.) to which human β3 gene has been inserted. […] This human β3 cDNA fragment is used as a probe, and the full length human β3 gene is obtained from a human genomic library (manufactured by Clontech Laboratories, Inc.). The above cells are cultured in Ham's F-12 medium containing 10% fetal bovine serum and 400 μg/ml geneticin (manufactured by Invitrogen, Inc.). These cells are seeded on a 96-well plate to a concentration of 2×10^4 cells/well, and after being cultured for about 20 hours, the cells are left to stand in 80 μL of serum-free Ham's F-12 medium for 15 minutes. A test compound is initially dissolved in DMSO, and then is diluted stepwise with Ham's F-12 containing 100 mmol/L HEPES and 1 mmol/L isobutylmethylxanthine. 20 μL of the dilution is added to the cells. After the cells are cultured for 30 minutes, the medium is removed. 0.3. ml of the Assay/lysis Buffer included in cAMP-Screen kit (manufactured by Applied Biosystems, Inc.) is added to the cells, and the cells are incubated at 37° C. for 30 minutes. The resulting cell lysate is subjected to quantification of cAMP with the cAMP-Screen kit.

Series [3] deals with T2, human α1A adrenergic receptor (Homo sapiens, UniProt P35348).
T2 construct: expressed in transfected cells; host or cells: HEK293 cells, pcDNA3.1(−), hygromycin B selection
T2 sequence (P35348 1-466): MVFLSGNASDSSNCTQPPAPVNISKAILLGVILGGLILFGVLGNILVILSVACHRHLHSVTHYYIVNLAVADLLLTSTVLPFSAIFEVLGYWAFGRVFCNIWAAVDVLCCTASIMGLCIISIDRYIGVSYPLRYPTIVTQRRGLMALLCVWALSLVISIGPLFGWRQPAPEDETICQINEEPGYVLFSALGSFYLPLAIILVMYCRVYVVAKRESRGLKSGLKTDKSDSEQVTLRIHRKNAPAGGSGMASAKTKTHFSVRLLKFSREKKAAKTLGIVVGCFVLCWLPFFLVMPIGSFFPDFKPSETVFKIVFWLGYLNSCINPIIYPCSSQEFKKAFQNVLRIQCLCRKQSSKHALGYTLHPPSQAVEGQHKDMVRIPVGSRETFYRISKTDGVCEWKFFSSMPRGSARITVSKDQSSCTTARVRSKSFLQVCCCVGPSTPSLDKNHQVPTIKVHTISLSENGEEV
Put plainly: Test Example 4: human α1A adrenergic receptor agonist activity (Ca flux, Fura-2, transfected HEK293 cells). It is filed as cell-based. The following applies: for Emax: HEK293, read-out: α1A receptor I.A.; for α1A receptor I.A.: maximum response to norepinephrine taken as 100%. As to the method:
Measurement of Human α1A Adrenergic Receptor Agonist Activity
The measurement of human α1A adrenergic receptor agonist activity is carried out using HEK293 cells transfected with pcDNA3.1(−) (manufactured by Invitrogen, Inc.) to which human α1A gene has been inserted. These cells are cultured in DMEM medium containing 10% fetal bovine serum, 400 μg/ml hygromycin B (manufactured by Gibco BRL), 100 U/ml penicillin and 100 μg/ml streptomycin. […] The cells are loaded in a CO2 incubator for 30 minutes, and then are washed twice with the Assay Buffer to remove excess Fura-2AM. The cells are centrifuged, and then are prepared into a solution at 5×10^6 cells/ml with the Assay Buffer. Subsequently, the cells are dispensed on a 96-well plate (manufactured by Corning, Inc.) at a volume of 80 μl/well, and the plate is used as a cell plate. […] Subsequently, measurement of fluorescence intensity (excitation wavelength 340 nm and 380 nm, measurement wavelength 500 nm) is initiated at an interval of 2 seconds. After making measurements for about 30 seconds, 20 μl of the test sample from the sample plate is added to the cell plate, and measurements are further continued for 270 seconds. The Ca flux resulting from the test compound is calculated utilizing the difference between the maximum value of fluorescence intensity ratio at the wavelengths 340 nm and 380 nm after the addition of the test compound, and the fluorescence intensity ratio before the addition of the test compound, as the peak height.

Series [4] has as its target T1, human β3 adrenergic receptor. Kind of series: Test Example 1-A: human β3 adrenergic receptor agonist activity (cAMP EIA, transfected CHO cells, 24-well). It is filed as cell-based. The note with it: Table 1; for EC50: Test Example 1-A; for β3 receptor I.A.: maximum response to isoproterenol taken as 100%. The method, then: as §1
The measurement of human β3 adrenergic receptor agonist activity is carried out using CHO (Chinese Hamster Ovary) cells transfected with pcDNA3 (manufactured by Invitrogen, Inc.) to which human β3 gene has been inserted. […] This human β3 cDNA fragment is used as a probe, and the full length human β3 gene is obtained from a human genomic library (manufactured by Clontech Laboratories, Inc.). The above cells are cultured in Ham's F-12 medium containing 10% fetal bovine serum and 400 μg/ml geneticin (manufactured by Invitrogen, Inc.). These cells are seeded on a 24-well plate to a concentration of 1×10^5 cells/well, and after being cultured for about 20 hours, the cells are left to stand in serum-free Ham's F-12 medium for 2 hours. A test compound is initially dissolved in DMSO, and then is diluted stepwise with Ham's F-12 containing 20 mmol/L HEPES, 1 mmol/L isobutylmethylxanthine, and 1 mmol/L ascorbic acid. The dilution is added to the cells. After the cells are cultured for 30 minutes, and then the medium is removed, followed by addition of 0.1 ml of 1 N NaOH to the cells. The cells are left to stand for 20 minutes, and then are added with 0.1 ml of 1 N acetic acid and are stirred. The resulting cell lysate is centrifuged, and then is subjected to quantification of cAMP with cAMP EIA kit (manufactured by Cayman Chemical Co.).

Where [5] appears, read: Table 1, Test Example 4, read-out: α1A receptor EC50.
Where [6] appears, read: Table 2, Test Example 4, read-out: α1A receptor EC50.

A word on the solubility: it is the dissolved amount per volume that the medium holds. A high value points to a readily soluble substance. A word on the EC50: it is the concentration giving half of the maximal effect.

≈ marks a conversion by molar mass, not a printed value. Where two headings read alike, the source gives them in different places.

T1 sequence (P13945 whole entry): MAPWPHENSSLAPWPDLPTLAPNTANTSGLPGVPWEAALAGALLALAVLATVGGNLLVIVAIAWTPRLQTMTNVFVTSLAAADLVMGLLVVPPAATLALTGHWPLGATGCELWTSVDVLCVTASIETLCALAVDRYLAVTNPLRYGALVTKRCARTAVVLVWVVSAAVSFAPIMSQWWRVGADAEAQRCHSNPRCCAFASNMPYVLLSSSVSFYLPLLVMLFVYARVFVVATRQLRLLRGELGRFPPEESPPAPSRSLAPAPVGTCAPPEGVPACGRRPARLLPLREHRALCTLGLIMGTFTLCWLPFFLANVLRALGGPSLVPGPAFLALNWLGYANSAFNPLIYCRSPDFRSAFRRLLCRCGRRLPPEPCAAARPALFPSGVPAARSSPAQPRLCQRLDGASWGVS

For the compound `CC(C)c1n[nH]c2cc(OCCNC[C@H](O)c3cccc(NS(C)(=O)=O)c3)ccc12` [Example 1, (R)-N-(3-(1-hydroxy-2-(2-(3-isopropylindazol-6-yloxy)ethylamino)ethyl)phenyl)methanesulfonamide], the solubility at 1 h in series [1] is ≥ 1000 µg/mL. Further, in series [2], the Emax was 74% and the EC50 was determined as 17 nM. In series [3], the EC50 is > 2000 nM and the Emax is 8%.
Take `CCc1n[nH]c2cc(OCCNC[C@H](O)c3cccc(NS(C)(=O)=O)c3)ccc12` [Example 2, (R)-N-(3-(1-hydroxy-2-(2-(3-ethylindazol-6-yloxy)ethylamino)ethyl)phenyl)methanesulfonamide]: the EC50 in series [4] was 29 nM; in series [2] it was 17 nM; in series [3] it was 855 nM; in series [3] (read-out: α1A receptor EC50, Table 2, Test Example 4) it was 855 nM. In addition, the “β3 receptor I.A.” value in series [4] is listed as 77%. In series [1], the solubility at 1 h is ≥ 1000 µg/mL. Further, the Emax was 76% in series [2] and 24% in series [3]. Besides, the “α1A receptor I.A.” value in series [3] (Table 2) is 24%.
In the case of `CCCc1n[nH]c2cc(OCCNC[C@H](O)c3cccc(NS(C)(=O)=O)c3)ccc12` [Example 3, (R)-N-(3-(1-hydroxy-2-(2-(3-propylindazol-6-yloxy)ethylamino)ethyl)phenyl)methanesulfonamide], the figures for the EC50 in series [4], in series [3] (setting [5]) and in series [3] (setting [6]) were 29 nM, > 2000 nM and > 2000 nM, respectively. Also, in series [4], the “β3 receptor I.A.” value worked out at 77%. Further, the Emax in series [3] came out at 0%. Moreover, the “α1A receptor I.A.” value in series [3] (Table 2) came out at 0%.
Consider `CS(=O)(=O)Nc1cccc([C@@H](O)CNCCOc2ccc3c(C(F)(F)F)n[nH]c3c2)c1` [Example 4, (R)-N-(3-(1-hydroxy-2-(2-(3-trifluoromethylindazol-6-yloxy)ethylamino)ethyl)phenyl)methanesulfonamide], for which the solubility at 1 h in series [1] was 932 µg/mL (≈ 2030 µM). Also, in series [2], the Emax stood at 78% and the EC50 worked out at 49 nM. Also, in series [3], the EC50 worked out at 892 nM and the Emax is 40%.
On to `CN(C)C(=O)CCc1n[nH]c2cc(OCCNC[C@H](O)c3cccc(NS(C)(=O)=O)c3)ccc12` [Example 5, (R)-3-(6-(2-(2-hydroxy-2-(3-(methylsulfonamido)phenyl)ethylamino)ethoxy)-indazol-3-yl)-N,N-dimethylpropanamide], for which the EC50 was determined as 51 nM in series [4] and 836 nM in series [3] (setting [5]). Also, the “β3 receptor I.A.” value in series [4] is 75%. Further, the solubility at 1 h in series [1] is ≥ 1000 µg/mL. In addition, in series [3], the Emax is 47%. Besides, in series [3] (Table 2), the “α1A receptor I.A.” value was determined as 47%.
On to `COCc1n[nH]c2cc(OCCNC[C@H](O)c3cccc(NS(C)(=O)=O)c3)ccc12` [Example 6, (R)-N-(3-(1-hydroxy-2-(2-(3-methoxymethylindazol-6-yloxy)ethylamino)ethyl)phenyl)methanesulfonamide], for which, in series [4], the EC50 is 7.4 nM and the “β3 receptor I.A.” value amounted to 82%. Besides, in series [1], the concentration in solution (solubility at 1 h) came to 993 µg/mL (≈ 2290 µM). For the same compound, in series [3], the Emax stood at 20%. Besides, in series [3] (setting [5]), the EC50 was > 2000 nM.
`CCc1n[nH]c2cc(OCCNC[C@H](O)c3ccc(F)c(NS(C)(=O)=O)c3)ccc12` [Example 8, (R)-N-(5-(2-(2-(3-ethylindazol-6-yloxy)ethylamino)-1-hydroxyethyl)-2-fluorophenyl)methanesulfonamide]: the Emax in series [2] amounted to 61%; in series [3], 5%. The EC50 in series [2] was 17 nM; in series [3] (setting [6]), > 2000 nM.
On the same counts, the results for `CCc1n[nH]c2cc(OCCNC[C@H](O)c3ccc(Cl)c(NS(C)(=O)=O)c3)ccc12` [Example 9, (R)-N-(2-chloro-5-(2-(2-(3-ethylindazol-6-yloxy)ethylamino)-1-hydroxyethyl)phenyl)methanesulfonamide] are 58%, 11%, 29 nM and > 2000 nM.
In the case of `CS(=O)(=O)Nc1cc([C@@H](O)CNCCOc2ccc3c(C(F)(F)F)n[nH]c3c2)ccc1Cl` [Example 11, (R)-N-(2-chloro-5-(1-hydroxy-2-(2-(3-(trifluoromethyl)indazol-6-yloxy)ethylamino)ethyl)phenyl)methanesulfonamide], the values for the Emax in series [2] and in series [3] were 65% and 0%, respectively. Also, the EC50 in series [2] is 15 nM; in series [3] (setting [6]), > 2000 nM.
On the same counts, the results for `COc1n[nH]c2cc(OCCNC[C@H](O)c3cccc(NS(=O)(=O)c4ccccc4)c3)ccc12` [Example 16, (R)-N-(3-(1-hydroxy-2-(2-(3-methoxyindazol-6-yloxy)ethylamino)ethyl)phenyl)benzenesulfonamide] are 75%, 0%, 17 nM and > 2000 nM.
